Experimental data taken from patent publication US8906828B2, “Compositions and methods for post emergent weed control with clethodim and gibberellic acid” (Valent U.S.A. Corporation, priority 2012, dated 2014).

Tests used:
Johnsongrass = assay: Post emergent treatment of plots with abundant Johnsongrass growth, % control (Example 1); assay type: in vivo, Sorghum halepense
Description: In order to determine the efficacy of combinations of clethodim and GA3, numerous treatments were applied to plots in an area with abundant Johnsongrass growth.
The percent control of Johnsongrass plants was evaluated at 7, 18 and 28 days following the treatment. Effect of Clethodim and GA3 Treatments on Johnsongrass (% control).”
The percent control refers to the amount of dead tissue on the plants present. It would be dead plants plus desiccated foliage on partially killed plants.

[1] = test system: Glyphosate resistant corn; assay: Clethodim and GA3 treatments on planted glyphosate resistant corn, % control (Example 2); assay type: in vivo
Description: A further study was performed in order to confirm the effect clethodim and GA3 treatments have on corn. Glyphosate resistant corn was planted with a conventional four-row planter. Treatments were applied 28 days after the plantings.
The percent corn control was evaluated at […] days following the treatments. Effect of Clethodim and GA3 Treatments on corn (% control).

**Q.** How did the “Johnsongrass % control 7 DAT” value (Johnsongrass; Clethodim 32 x g ai/a (9 fl oz/a of Selectmax), 0.25% v/v non-ionic surfactant and 2.5 lb/acre AMS, 7 DAT) turn out when CCSC(C)CC1CC(=O)C(C(CC)=NOC/C=C/Cl)=C(O)C1 (centres unmarked) [Clethodim, 2-[1-[[[(2E)-3-chloro-2-propen-1-yl]oxy]imino]propyl]-5-[2-(ethylthio)propyl]-3-hydroxy-2-cyclohexen-1-one] was run?
**A.** Its value is 37.21%.

**Q.** What about the “Johnsongrass % control 18 DAT” value (Johnsongrass; Clethodim 32 x g ai/a (9 fl oz/a of Selectmax), 0.25% v/v non-ionic surfactant and 2.5 lb/acre AMS, 18 DAT) of the same molecule?
**A.** The value was 85.66%.

**Q.** What about the “Johnsongrass % control 28 DAT” value (Johnsongrass; Clethodim 32 x g ai/a (9 fl oz/a of Selectmax), 0.25% v/v non-ionic surfactant and 2.5 lb/acre AMS, 28 DAT) of the same molecule?
**A.** The value was 89.26%.

**Q.** And the “Corn % control 6 DAT” value ([1]; Clethodim 32 gm ai/a, 0.25% v/v non-ionic surfactant and 2.5 lb/acre ammonium sulfate, 6 DAT)?
**A.** Its value is 48.33%.

**Q.** What about the “Corn % control 13 DAT” value ([1]; Clethodim 32 gm ai/a, 0.25% v/v non-ionic surfactant and 2.5 lb/acre ammonium sulfate, 13 DAT) of the same molecule?
**A.** Its value is 88.33%.

**Q.** And the “Corn % control 29 DAT” value ([1]; Clethodim 32 gm ai/a, 0.25% v/v non-ionic surfactant and 2.5 lb/acre ammonium sulfate, 29 DAT)?
**A.** The value was 96.00%.

**Q.** Which “Effect of GA3 on the activity of clethodim on Johnsongrass” value (Johnsongrass; seven days following treatment, versus clethodim alone) does the source give for C=C1C[C@]23C[C@@]1(O)CC[C@H]2[C@@]12C=C[C@H](O)[C@@](C)(C(=O)O1)[C@H]2[C@@H]3C(=O)O [GA3, Gibberellic acid] here?
**A.** Its value is “more than doubles”.

**Q.** And the “Effect of GA3 on the activity of clethodim on corn” value ([1]; presence of GA3)?
**A.** Its value is “significantly increased”.
